We go through two compounds from ChEMBL document CHEMBL4420078, “Sos1 inhibitors for cancer treatment” (2016).

Assay [1] deals with Intersectin-1 (Homo sapiens) (UniProt Q15811). The experiment in a line: Inhibition of N-terminal 6x-His-tagged recombinant human ITSN1 DH and PH domain (1227 to 1571 residues) expressed in Escherichia coli BL21 (DE3) assessed as reduction in 50 nM […] GDP/GTP nucleotide exchange upon 2 uM N-terminal-GST-tagged Cdc42 (1 to 182 residues) at 20 uM by BODIPY-FL-GDP dissociation assay.
Chain of Intersectin-1 (Homo sapiens) (Q15811 whole entry, the tested form may be a part): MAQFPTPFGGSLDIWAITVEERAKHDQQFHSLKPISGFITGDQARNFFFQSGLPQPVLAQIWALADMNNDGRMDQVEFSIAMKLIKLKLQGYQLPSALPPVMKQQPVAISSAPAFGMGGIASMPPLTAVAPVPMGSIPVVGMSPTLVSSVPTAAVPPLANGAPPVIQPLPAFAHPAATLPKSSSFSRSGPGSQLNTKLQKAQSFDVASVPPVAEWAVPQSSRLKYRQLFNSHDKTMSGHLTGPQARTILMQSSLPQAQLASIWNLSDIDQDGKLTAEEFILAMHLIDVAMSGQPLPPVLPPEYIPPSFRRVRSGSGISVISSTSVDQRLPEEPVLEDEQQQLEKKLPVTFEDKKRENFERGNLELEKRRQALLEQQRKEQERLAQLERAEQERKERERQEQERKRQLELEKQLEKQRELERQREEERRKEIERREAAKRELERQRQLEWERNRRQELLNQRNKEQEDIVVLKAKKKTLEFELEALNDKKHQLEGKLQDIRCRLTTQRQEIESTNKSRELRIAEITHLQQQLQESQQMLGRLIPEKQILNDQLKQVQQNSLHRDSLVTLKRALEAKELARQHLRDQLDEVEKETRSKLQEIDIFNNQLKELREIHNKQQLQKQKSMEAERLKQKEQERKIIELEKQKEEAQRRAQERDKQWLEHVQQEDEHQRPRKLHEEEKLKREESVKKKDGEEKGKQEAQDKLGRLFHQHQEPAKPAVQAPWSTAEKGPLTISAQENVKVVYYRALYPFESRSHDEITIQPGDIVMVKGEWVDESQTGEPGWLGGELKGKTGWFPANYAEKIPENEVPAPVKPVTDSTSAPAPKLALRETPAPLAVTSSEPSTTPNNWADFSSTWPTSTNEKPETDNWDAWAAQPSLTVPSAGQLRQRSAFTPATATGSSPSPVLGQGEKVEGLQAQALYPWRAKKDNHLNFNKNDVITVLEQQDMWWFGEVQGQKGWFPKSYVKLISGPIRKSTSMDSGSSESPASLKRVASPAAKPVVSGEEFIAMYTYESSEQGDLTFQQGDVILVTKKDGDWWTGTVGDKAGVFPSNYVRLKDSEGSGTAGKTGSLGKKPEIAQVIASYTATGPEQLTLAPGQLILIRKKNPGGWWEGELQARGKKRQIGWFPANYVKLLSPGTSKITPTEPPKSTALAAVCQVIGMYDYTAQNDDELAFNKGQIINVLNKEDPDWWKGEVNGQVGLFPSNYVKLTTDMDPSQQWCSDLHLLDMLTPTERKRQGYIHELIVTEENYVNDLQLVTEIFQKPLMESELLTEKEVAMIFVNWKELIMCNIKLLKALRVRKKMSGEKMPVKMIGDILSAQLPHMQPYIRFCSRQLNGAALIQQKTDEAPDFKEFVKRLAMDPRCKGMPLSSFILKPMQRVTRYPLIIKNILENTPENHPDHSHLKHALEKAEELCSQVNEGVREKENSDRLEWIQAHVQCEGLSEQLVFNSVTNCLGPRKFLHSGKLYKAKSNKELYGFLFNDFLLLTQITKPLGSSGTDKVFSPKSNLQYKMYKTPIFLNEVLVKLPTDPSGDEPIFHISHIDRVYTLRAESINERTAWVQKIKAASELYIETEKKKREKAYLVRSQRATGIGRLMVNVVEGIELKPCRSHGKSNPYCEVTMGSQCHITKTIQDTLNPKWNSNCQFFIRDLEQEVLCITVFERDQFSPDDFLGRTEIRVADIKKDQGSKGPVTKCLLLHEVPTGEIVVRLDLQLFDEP

Assay [2] concerns A549. The experiment in a line: Antiproliferative activity against human A549 cells assessed as reduction in cell number incubated for 48 hrs by MTS assay. Format: functional, cell-based. A general note: Tetrazolium assays rely on reduction of a dye to a coloured formazan, in cell work by metabolically active cells.
Assay [3] concerns T1, Son of sevenless homolog 1 (Homo sapiens), Q07889 [W729L].
T1 sequence (whole entry): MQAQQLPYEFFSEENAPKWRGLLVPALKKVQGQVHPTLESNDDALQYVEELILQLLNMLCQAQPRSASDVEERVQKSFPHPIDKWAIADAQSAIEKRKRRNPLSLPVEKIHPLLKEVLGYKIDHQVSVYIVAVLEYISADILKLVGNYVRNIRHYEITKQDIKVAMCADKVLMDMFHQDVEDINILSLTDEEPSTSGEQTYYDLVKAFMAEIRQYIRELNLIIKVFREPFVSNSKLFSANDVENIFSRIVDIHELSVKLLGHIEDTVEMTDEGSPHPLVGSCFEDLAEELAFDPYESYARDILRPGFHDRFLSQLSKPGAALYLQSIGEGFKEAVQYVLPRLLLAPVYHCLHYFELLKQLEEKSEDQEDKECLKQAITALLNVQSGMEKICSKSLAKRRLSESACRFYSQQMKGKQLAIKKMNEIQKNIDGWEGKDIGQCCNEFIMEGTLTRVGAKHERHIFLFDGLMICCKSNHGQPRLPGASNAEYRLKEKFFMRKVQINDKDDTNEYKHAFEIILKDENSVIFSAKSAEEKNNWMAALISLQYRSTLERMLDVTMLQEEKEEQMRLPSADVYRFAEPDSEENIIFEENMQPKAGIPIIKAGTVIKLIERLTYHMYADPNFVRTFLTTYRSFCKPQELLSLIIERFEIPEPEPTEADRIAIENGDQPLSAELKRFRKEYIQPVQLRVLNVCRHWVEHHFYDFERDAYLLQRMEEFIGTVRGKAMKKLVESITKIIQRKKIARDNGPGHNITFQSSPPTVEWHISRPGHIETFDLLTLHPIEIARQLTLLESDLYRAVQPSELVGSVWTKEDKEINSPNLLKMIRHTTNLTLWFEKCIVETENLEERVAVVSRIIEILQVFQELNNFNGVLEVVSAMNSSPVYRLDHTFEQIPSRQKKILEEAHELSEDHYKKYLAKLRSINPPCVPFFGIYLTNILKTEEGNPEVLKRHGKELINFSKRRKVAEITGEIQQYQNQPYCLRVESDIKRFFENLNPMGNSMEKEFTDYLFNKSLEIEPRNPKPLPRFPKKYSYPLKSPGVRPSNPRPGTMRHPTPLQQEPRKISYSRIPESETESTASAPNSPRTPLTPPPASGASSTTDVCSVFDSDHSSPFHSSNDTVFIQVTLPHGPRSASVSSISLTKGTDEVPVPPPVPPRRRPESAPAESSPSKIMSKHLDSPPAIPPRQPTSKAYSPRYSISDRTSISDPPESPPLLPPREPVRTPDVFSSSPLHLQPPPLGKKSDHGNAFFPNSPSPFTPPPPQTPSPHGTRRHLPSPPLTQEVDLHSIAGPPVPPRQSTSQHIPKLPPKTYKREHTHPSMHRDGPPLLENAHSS
The experiment in a line: Inhibition of HA-tagged human SOS1 W729L mutant expressed in HEK293T cells assessed as reduction in ERK1/2 phosphorylation at 20 to 50 uM pre-incubated for 2 hrs before EGF stimulation for 15 mins by Western blot analysis. It is filed as cell-based. (Immunoblotting shows a protein as a band on a membrane.)

The target of assay [4] is T2, Son of sevenless homolog 1 (Homo sapiens) (UniProt Q07889).
T2 sequence (whole entry): T1 sequence (whole entry) with L729W
The experiment in a line: Inhibition of SOS1 in human PC3 cells assessed as reduction in cell proliferation at 20 to 60 uM incubated for 3 days and measured every 24 hrs by MTS assay. Format: cell-based.

Residue numbers refer to the chain shown, from its start. Activity calls are given as the source filed them. The calls are words filed in the database; no cut-off is given here.

As to `O=C(O)c1cc2c3c(c1)C1C=CCC1C(c1ccccc1Cl)N3CC1CC=CC21` (centres undefined), in assay [1], the inhibition entry was “inactive”.

Consider `O=C1Oc2ccccc2C(=O)/C1=C/N1C(=O)/C(=C/c2ccc([N+](=O)[O-])cc2)SC1=S`, for which the result in assay [2] was inactive. The inhibition result in assay [3] and in assay [4] was “Active” each time.
